Assay results published in US20240082128A1, “COMPOSITION FOR USE IN DEGRADATION OF BIOFILM OR PREVENTION OF BIOFILM FORMATION” (Pharmiva AB, priority 2021, published 2024).
“Also recorded” adds a separate entry of the source.

Tests used:
[1] = Viscosity of polymer gel used as biofilm extracellular matrix proxi (degradation); conditions: 10 g formulation added to gel, viscosity up to 24 hours
Method: Three different gels were used in the study reported in Example 2 below: 2% natrosol gel, 2% alginate gel and 6% pectin gel. FeSO4 (10 mM) was added to the gels during manufacturing and acts as a catalysator and by mimic oxidation potential in biological fluids.
The alginate and Natrosol gel were manufactured by adding sodium Alginate/Natrosol to the water solution containing FeSO4, during stirring. The pectin gel was manufactured by heating the water to 80° C. and add pectin as well as FeSO4 during stirring. After manufacture, 6 glass vials (60 mL) were filled with 40 mL of the gel.
In general, biofilms consist of polymers consisting of polysaccharides, most commonly alginates, extracellular proteins, DNA and small amounts of surfactants and lipid. In this experiment, commercially available polymers were used as proxi (i.e. a measurement of one physical quantity (polymer) as an indicator of the value of another (biofilm)) to model the extracellular matrix of biofilm. […]
For each test, following method was used: First, viscosity of the pure gel was measured. […] Viscosity was measured immediately before addition of the formulation or composition, immediately after addition of the formulation or composition, 10 min, 1 hour and 24 hours addition of the formulation or composition. […]

Candida = conditions: cited from earlier work
Gardnerella vaginalis = conditions: cited from earlier work
Lactobacillus = conditions: used for treatment of bacterial vaginosis; cited from earlier work
[2] = test system: Candida albicans (ATCC 90028) biofilm; assay: Biofilm biomass removal, crystal violet staining assay; assay type: cell-based; conditions: C. albicans
Method: (§1) Gardnerella vaginalis (ATCC® 14018™) and Candida albicans (ATCC® 90028™) were grown on microtiter plates for 48 h at 37° C.±2° C. before being rinsed with PBS to remove planktonic cells. Thereafter the biofilms of the two microorganisms were exposed to the bulk cream and its components (as well as clinical comparators Metronidazole gel and Monistat 7) for 24 h at 37° C.±2° C. The efficacy of formulations in removing biofilm biomass of G. vaginalis and C. albicans was assessed using a crystal violet staining assay and the efficacy of formulations to decrease biofilm viability of G. vaginalis and C. albicans was assessed by plate count method.

[3] = test system: Gardnerella vaginalis (ATCC 14018) biofilm; assay: as above; assay type: cell-based; conditions: G. vaginalis
Method: as §1

[4] = test system: Candida albicans (ATCC 90028) biofilm; assay: Biofilm viability, plate count method; assay type: cell-based; conditions: C. albicans; 48 h biofilm exposed 24 h at 37° C.; mean ± SD
Method: as §1

[5] = test system: Gardnerella vaginalis (ATCC 14018) biofilm; assay: Biofilm viability, plate count method; assay type: cell-based; conditions: G. vaginalis
Method: as §1

biofilm = conditions: for one hour; cited from earlier work
microorganisms = conditions: 5 nM hydrogen peroxide (endogenous stress); cited from earlier work
[6] = 48 h biofilm exposed 24 h at 37° C.
[7] = 48 h biofilm exposed 24 h at 37° C., mean ± SD, n = 3

Compound: lactic acid [0.3% lactic acid solution with 0.7% NaOH]
- Decrease in viscosity of polymer gel with time (polymer degradation) ([1]; Alginate gel, FIGS. 1B, 2B): viscosity decrease was observed over time
- Decrease in viscosity of polymer gel with time (polymer degradation) ([1]; Natrosol gel, FIGS. 1A, 2A): viscosity decrease was observed over time

Compound: CCCCCCCCCCCC(=O)OCC(O)CO (stereo not shown) [glycerol monolaurate]
- Inhibitory effect (Candida): inhibitory effect
- Inhibitory effect (Gardnerella vaginalis): inhibitory effect
- Influence on Lactobacillus count (Lactobacillus): does not influence Lactobacillus count

Compound: OO [0.3% H2O2 aq. sol., hydrogen peroxide]
- Removal of biofilm biomass (in words) ([2]; 24 hours incubation, FIG. 3A): efficiently remove biomass
- Biofilm forming potential [2, 6]: Medium
- Biofilm biomass, optical density at 570 nm [2, 7]: 0.46 ± 0.11
- Removal of biofilm biomass (in words) ([3]; 24 hours incubation, FIG. 3B, listed as 0.3% H2O2 solution): efficiently diminish the biofilm biomass; also recorded: efficiently remove biomass
- Biofilm forming potential [3, 6]: Low/no
- Biofilm biomass, optical density at 570 nm [3, 7]: 0.27 ± 0.002
- Biofilm viability [4]: 2.90 ± 0.130 Log10 CFU/mL
- Biofilm viability ([5]; 48 h biofilm exposed 24 h at 37° C., mean ± SD): 2.47 ± 0.119 Log10 CFU/mL
- Decrease of biofilm viability (in words) ([5]; FIG. 4B): efficiently decrease the viability

Compound: OO [hydrogen peroxide]
- Concentration needed as sole agent to reduce the amount of biofilm by 85% (biofilm): 0.5 % w/w
- Effect on biofilm formation (microorganisms): biofilm formation was promoted
